{"source": "patent US20160317560A1", "about": "“PARTICLES CONTAINING PHOSPHOLIPIDS OR BIOACTIVE FATTY ACIDS AND USES THEREOF” (THE UNIVERSITY OF NORTH CAROLINA AT CHAPEL HILL, priority 2013, published 2016)", "key": {"2D2 T cells": {"system": "2D2 T cells", "assay": "Murine DC/T-cell co-culture (mouse dendritic cells and MOG-specific 2D2 T cells), T-cell activation and Treg induction", "type": "cell-based", "details": "for IFN-γ production by T cells: in the presence of MOG antigen, 50 μM PS (FIG. 11A)", "from_the_text": "FIG. 5 depicts a murine model of multiple sclerosis (2D2) for evaluating T-cell activation in murine DC/T-cell co-culture.\nFIG. 11A-B depicts programming regulatory T cells with phosphatidylserine Nanoparticles. A) Flow plots of 2D2 T cells after co-stimulation with bone-marrow derived dendritic cells+/−the MOG peptide. […] (*=p<0.05).\nUsing a co-culture model with mouse dendritic cells and 2D2 T cells specific for the MOG-peptide, Th1-skewed IFN-γ producing T cells were turned into FOXP3+, IL-10 producing T regulatory cells (FIGS. 10 and 11). In the absence of antigen, roughly 20% of all T cells were programmed into anti-inflammatory IL-10 producing FOXP3+ regulatory T cells. This was about a 10-15 fold increase as compared to blank PLGA particles controls. This was about 4-5 fold increase over the soluble PS control at the same dose. This is an exceptionally high % of T regulatory cells in any in vitro or in vivo system.\nIn the presence of soluble MOG antigen, about 10% of T cells produced IFN-γ in the blank 80×320 nm PLGA control group. […] The presence of antigen led to a 10% IL-10+, FOXP3+ T regulatory population in the presence of blank PLGA particles or soluble PS. PS-PLGA particles induced 2 fold higher levels of this regulatory T cell population, about 20% of all T cells."}, "[1]": {"system": "primary progressive multiple sclerosis", "assay": "Murine model of primary progressive multiple sclerosis", "type": "in vivo", "details": "14 day study", "from_the_text": "FIG. 15 depicts a murine model of primary progressive multiple sclerosis. Reproduced from the Reeves Foundation. FIG. 16 provides data showing PS-loaded particles reduce MS symptoms. The study was 14 days to emphasize the suppression of the neuroinflammation ramp-up during the model."}, "[2]": {"system": "bone marrow derived mouse macrophages", "assay": "Inflammasome activation in bone marrow derived mouse macrophages", "type": "cell-based", "details": "1 μm and 80×320 nm particles; soluble form at the same dose; FIG. 19", "from_the_text": "FIG. 19. Anti-inflammatory Programming Particles.\nDisclosed herein are data showing emergent properties when bioactive fatty acids and phospholipids are delivered via the particles described herein. […] Other phospholipids and bioactive fatty acids could have similar properties when particulated as described herein."}}, "note": "“Also recorded” adds a separate entry of the source."}
{"molecule": "CCCCCCCC/C=C\\CCCCCCCC(=O)O[C@H](COC(=O)CCCCCCCCCCCCCCCCC)COP(=O)(O)OC[C@H](N)C(=O)[O-].[Na+]", "note": "[PS SOL, Phosphatidylserine]", "values": [{"measurement": "FOXP3+ T cells", "setting": "2D2 T cells; FIG. 11A, 50 μM PS", "value": "not seen"}, {"measurement": "IFN-γ production by T cells", "setting": "2D2 T cells", "value": "inhibit IFN-γ production"}, {"measurement": "IFN-γ production by T cells", "setting": "2D2 T cells; listed as soluble PS", "value": "inhibited to baseline levels; also recorded: can inhibit IFN-γ as well as particulate PS"}, {"measurement": "IFN-γ production by T cells", "setting": "2D2 T cells; listed as soluble phosphatidylserine (PS)", "value": "dampen IFN-γ production"}, {"measurement": "IL-10+, FOXP3+ T regulatory population, % of all T cells", "setting": "2D2 T cells; presence of soluble MOG antigen", "value": 10, "unit": "%"}, {"measurement": "Maximum Score", "setting": "[1]; (+/−)", "value": "0.8 (+/−0.2)"}, {"measurement": "Disease Incidence", "setting": "[1]; (affected/total animals)", "value": "83% (10/12)"}, {"measurement": "inflammasome activation / signaling", "setting": "[2]", "value": "exacerbated inflammation"}]}
